Measured values taken from ChEMBL document CHEMBL4507262, “Data for DCP probe A-1596586” (2021).

Experiments:
[1] = molecular target: Cyclin-dependent kinase 19 (Homo sapiens) (UniProt Q9BWU1); settings: Compound concentration 1000.0 nM
[2] = molecular target: Serine/threonine-protein kinase PAK 2 (Homo sapiens) (UniProt Q13177); settings: Compound concentration 1000.0 nM
[3] = molecular target: T1, 5-hydroxytryptamine receptor 3A (Homo sapiens) (UniProt P46098); settings: Compound concentration 10.0 uM
T1 sequence (whole entry): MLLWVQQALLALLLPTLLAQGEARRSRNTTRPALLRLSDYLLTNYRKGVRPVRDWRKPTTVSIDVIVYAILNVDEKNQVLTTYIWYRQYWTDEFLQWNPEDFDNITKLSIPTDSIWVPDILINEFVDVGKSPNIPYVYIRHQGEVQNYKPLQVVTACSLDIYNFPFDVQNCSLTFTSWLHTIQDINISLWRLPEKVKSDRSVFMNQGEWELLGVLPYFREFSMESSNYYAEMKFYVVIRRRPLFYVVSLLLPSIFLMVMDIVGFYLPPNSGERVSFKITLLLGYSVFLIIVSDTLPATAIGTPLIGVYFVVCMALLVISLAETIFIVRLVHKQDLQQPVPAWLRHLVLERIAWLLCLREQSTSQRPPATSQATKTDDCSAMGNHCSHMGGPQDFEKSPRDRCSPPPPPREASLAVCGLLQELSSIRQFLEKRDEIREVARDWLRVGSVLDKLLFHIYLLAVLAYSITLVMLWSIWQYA

[4] = test system: Tyrosine-protein kinase ABL1 (Homo sapiens), P00519 [Q252H]; settings: Compound concentration 1000.0 nM
[5] = molecular target: Tyrosine-protein kinase receptor TYRO3 (Homo sapiens) (UniProt Q06418); settings: Compound concentration 1000.0 nM
[6] = molecular target: Urotensin-2 receptor (Homo sapiens) (UniProt Q9UKP6); assay: UT (h) Eurofins-Cerep binding assay; set-up: ligand concentration 0.1 nM; settings: filed as agonist, Compound concentration 10.0 uM
[7] = molecular target: MAP kinase-interacting serine/threonine-protein kinase 1 (Homo sapiens) (UniProt Q9BUB5); settings: Compound concentration 1000.0 nM
[8] = molecular target: Ephrin type-B receptor 6 (Homo sapiens) (UniProt O15197); settings: Compound concentration 1000.0 nM
[9] = test system: Hepatocyte growth factor receptor (Homo sapiens), P08581 [M1250T]; settings: Compound concentration 1000.0 nM
[10] = molecular target: Sigma non-opioid intracellular receptor 1 (Homo sapiens, UniProt Q99720); settings: Compound concentration 10.0 uM
[11] = molecular target: Mitogen-activated protein kinase kinase kinase 3 (Homo sapiens) (UniProt Q99759); settings: Compound concentration 1000.0 nM
[12] = molecular target: Tyrosine-protein kinase FRK (Homo sapiens) (UniProt P42685); settings: Compound concentration 1000.0 nM
Chain of Tyrosine-protein kinase FRK (Homo sapiens) (P42685 whole entry): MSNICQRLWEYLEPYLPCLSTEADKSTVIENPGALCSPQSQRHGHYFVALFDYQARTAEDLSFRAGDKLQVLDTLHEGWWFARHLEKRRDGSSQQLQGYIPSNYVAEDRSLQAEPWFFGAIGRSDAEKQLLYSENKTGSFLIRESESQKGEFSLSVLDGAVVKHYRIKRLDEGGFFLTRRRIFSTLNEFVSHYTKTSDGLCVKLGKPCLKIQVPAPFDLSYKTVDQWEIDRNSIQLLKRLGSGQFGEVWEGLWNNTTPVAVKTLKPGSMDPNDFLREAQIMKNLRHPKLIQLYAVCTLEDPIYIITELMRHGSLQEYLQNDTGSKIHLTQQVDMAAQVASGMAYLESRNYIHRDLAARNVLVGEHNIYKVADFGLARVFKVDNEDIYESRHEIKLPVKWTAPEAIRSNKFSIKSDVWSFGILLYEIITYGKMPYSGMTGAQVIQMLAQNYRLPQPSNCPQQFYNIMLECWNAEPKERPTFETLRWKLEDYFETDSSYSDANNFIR

[13] = molecular target: Serine/threonine-protein kinase TBK1 (Homo sapiens) (UniProt Q9UHD2); settings: Compound concentration 1000.0 nM
[14] = molecular target: Serine/threonine-protein kinase MARK1 (Homo sapiens) (UniProt Q9P0L2); settings: Compound concentration 1000.0 nM
[15] = molecular target: Serine/threonine-protein kinase LATS1 (Homo sapiens) (UniProt O95835); settings: Compound concentration 1000.0 nM
[16] = molecular target: 1-phosphatidylinositol 3-phosphate 5-kinase (Homo sapiens) (UniProt Q9Y2I7); settings: Compound concentration 1000.0 nM
Chain of 1-phosphatidylinositol 3-phosphate 5-kinase (Homo sapiens) (Q9Y2I7 whole entry): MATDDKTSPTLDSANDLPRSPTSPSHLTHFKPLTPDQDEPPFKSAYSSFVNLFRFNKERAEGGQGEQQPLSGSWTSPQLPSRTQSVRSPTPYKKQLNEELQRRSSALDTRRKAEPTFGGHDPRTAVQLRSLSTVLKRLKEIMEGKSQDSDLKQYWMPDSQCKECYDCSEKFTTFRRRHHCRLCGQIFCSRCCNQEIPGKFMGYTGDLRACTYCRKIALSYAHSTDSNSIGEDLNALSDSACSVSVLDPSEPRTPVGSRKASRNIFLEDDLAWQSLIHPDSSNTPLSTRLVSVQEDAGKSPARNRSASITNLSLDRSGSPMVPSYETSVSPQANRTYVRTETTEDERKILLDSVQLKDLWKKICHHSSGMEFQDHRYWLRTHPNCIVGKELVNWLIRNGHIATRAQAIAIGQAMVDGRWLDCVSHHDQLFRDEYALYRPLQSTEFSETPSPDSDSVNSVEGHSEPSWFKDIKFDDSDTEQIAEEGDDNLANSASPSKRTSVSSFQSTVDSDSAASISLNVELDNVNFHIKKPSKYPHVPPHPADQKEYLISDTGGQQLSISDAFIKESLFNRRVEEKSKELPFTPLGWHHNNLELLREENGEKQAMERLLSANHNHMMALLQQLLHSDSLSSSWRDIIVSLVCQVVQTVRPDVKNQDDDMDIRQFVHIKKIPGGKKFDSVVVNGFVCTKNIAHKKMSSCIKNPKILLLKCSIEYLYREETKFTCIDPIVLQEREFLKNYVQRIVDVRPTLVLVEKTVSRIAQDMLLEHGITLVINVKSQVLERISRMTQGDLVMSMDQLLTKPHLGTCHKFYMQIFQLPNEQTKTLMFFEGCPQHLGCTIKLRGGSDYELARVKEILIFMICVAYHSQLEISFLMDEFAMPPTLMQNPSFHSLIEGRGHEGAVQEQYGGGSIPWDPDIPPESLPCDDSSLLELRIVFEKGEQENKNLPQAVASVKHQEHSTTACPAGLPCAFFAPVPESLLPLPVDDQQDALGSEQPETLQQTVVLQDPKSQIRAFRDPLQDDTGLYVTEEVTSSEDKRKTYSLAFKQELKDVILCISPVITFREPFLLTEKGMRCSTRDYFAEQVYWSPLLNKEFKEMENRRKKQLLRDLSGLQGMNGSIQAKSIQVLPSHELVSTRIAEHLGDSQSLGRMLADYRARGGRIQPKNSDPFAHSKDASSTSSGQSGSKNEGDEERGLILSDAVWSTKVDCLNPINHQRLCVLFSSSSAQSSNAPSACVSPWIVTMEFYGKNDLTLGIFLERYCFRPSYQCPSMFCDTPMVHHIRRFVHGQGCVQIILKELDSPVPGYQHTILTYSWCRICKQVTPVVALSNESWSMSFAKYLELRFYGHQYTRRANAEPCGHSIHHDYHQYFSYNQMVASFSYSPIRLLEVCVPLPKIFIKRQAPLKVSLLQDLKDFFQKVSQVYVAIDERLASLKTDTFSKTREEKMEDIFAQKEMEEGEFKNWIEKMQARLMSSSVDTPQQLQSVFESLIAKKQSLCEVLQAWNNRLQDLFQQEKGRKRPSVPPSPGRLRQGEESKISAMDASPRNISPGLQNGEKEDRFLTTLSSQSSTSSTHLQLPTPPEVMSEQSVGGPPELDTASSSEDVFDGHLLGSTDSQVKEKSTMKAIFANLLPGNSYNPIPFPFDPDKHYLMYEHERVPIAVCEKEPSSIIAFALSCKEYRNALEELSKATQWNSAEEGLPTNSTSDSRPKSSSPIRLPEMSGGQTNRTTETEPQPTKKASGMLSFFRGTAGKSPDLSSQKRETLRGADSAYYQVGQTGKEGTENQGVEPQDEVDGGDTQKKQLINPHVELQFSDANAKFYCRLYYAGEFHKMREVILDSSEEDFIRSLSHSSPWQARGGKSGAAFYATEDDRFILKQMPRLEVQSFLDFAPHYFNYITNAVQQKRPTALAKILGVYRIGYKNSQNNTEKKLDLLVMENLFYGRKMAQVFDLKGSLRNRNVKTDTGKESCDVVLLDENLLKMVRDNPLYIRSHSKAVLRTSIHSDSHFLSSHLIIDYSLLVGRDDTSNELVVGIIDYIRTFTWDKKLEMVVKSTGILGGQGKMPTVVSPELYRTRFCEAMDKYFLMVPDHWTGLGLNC

[17] = molecular target: Receptor tyrosine-protein kinase erbB-2 (Homo sapiens) (UniProt P04626); settings: Compound concentration 1000.0 nM
[18] = molecular target: Serine/threonine-protein kinase NLK (Homo sapiens) (UniProt Q9UBE8); settings: Compound concentration 1000.0 nM
[19] = molecular target: L-type Ca2+ channel (dihydropyridine site) (Rattus norvegicus, UniProt P22002+P27732+Q02485); assay: Ca2+ channel (L, dihydropyridine site) Eurofins-Cerep binding assay; format: protein assay; set-up: incubation time 90 min, incubation temperature RT, ligand concentration 0.1 nM; settings: rat cerebral cortex, probe [3H]nitrendipine (0.1 nM), compound concentration 10 uM, read-out: % Inhibition of Control Specific Binding (Mean n=2)
[20] = molecular target: Ephrin type-A receptor 3 (Homo sapiens) (UniProt P29320); settings: Compound concentration 1000.0 nM
[21] = molecular target: Casein kinase I isoform gamma-3 (Homo sapiens) (UniProt Q9Y6M4); settings: Compound concentration 1000.0 nM
Chain of Casein kinase I isoform gamma-3 (Homo sapiens) (Q9Y6M4 whole entry, looked up, canonical isoform): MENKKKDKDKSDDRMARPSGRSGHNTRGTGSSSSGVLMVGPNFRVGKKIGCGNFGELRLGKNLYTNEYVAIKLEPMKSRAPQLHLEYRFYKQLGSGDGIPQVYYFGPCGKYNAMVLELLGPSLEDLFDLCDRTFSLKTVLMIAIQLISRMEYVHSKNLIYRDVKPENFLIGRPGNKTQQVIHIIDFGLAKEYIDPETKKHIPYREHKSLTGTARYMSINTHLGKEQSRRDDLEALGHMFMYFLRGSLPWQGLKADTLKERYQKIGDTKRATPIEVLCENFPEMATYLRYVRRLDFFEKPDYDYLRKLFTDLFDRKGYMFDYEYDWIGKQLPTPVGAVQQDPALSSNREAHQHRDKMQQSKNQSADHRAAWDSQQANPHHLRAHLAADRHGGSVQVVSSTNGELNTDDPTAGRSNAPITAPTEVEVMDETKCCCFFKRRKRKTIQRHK

[22] = molecular target: Mu-type opioid receptor (Homo sapiens) (UniProt P35372); assay: mu (MOP) (h) Eurofins-Cerep binding assay; set-up: ligand concentration 0.5 nM; settings: filed as agonist, Compound concentration 10.0 uM
[23] = molecular target: Tyrosine-protein kinase Lyn (Homo sapiens) (UniProt P07948); settings: Compound concentration 1000.0 nM
[24] = molecular target: Cyclin-G-associated kinase (Homo sapiens) (UniProt O14976); settings: Compound concentration 1000.0 nM
Chain of Cyclin-G-associated kinase (Homo sapiens) (O14976 whole entry): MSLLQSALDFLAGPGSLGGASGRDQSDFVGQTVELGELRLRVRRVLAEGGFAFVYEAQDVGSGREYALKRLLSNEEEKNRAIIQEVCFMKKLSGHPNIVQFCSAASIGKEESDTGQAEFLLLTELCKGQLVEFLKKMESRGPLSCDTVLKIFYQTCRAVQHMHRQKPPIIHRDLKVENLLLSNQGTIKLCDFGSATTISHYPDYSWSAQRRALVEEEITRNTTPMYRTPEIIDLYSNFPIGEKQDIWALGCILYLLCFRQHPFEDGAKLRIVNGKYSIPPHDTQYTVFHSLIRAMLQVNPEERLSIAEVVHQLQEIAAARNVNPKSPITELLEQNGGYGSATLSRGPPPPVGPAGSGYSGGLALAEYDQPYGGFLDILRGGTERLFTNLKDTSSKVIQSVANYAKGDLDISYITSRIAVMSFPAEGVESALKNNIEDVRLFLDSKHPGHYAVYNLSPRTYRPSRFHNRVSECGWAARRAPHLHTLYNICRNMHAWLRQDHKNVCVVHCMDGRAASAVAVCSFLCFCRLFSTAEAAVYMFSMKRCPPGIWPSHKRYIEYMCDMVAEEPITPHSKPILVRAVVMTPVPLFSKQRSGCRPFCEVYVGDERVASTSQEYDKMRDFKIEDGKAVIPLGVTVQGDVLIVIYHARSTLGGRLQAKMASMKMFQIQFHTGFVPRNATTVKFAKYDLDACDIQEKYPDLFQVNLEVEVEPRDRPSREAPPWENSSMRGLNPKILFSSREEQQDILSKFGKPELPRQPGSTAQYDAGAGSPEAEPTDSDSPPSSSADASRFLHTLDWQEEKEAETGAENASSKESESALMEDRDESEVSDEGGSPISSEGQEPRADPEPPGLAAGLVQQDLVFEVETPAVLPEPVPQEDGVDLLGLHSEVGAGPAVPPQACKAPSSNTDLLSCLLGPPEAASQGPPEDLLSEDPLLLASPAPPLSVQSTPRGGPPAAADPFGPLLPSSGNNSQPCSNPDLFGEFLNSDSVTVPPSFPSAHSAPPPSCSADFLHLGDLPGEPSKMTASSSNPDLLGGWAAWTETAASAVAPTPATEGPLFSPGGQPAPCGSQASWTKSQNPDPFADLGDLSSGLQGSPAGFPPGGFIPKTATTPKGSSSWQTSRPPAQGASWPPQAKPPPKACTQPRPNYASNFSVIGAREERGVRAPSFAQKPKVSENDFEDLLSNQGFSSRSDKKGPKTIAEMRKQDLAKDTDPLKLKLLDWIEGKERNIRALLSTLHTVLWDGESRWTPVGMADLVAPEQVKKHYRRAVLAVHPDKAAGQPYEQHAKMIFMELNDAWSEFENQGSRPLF

[25] = test system: Epidermal growth factor receptor (Homo sapiens), P00533 [L858R,T790M]; settings: Compound concentration 1000.0 nM
[26] = molecular target: L-type Ca2+ channel (diltiazem site, benzothiazepines) (Rattus norvegicus, UniProt P22002+P27732+Q02485); assay: Ca2+ channel (L, diltiazem site) (benzothiazepines) Eurofins-Cerep binding assay; format: protein assay; set-up: incubation time 120 min, incubation temperature RT, ligand concentration 15 nM; settings: rat cerebral cortex, probe [3H]diltiazem (15 nM), compound concentration 10 uM, read-out: % Inhibition of Control Specific Binding (Mean n=2)
[27] = molecular target: 5-hydroxytryptamine receptor 4 (Homo sapiens) (UniProt Q13639); assay: 5-HT4 e (h) Eurofins-Cerep binding assay; set-up: ligand concentration 0.3 nM; settings: filed as antagonist, Compound concentration 10.0 uM
[28] = molecular target: Proto-oncogene tyrosine-protein kinase Src (Homo sapiens) (UniProt P12931); settings: Compound concentration 1000.0 nM
[29] = molecular target: Rhodopsin kinase GRK1 (Homo sapiens) (UniProt Q15835); settings: Compound concentration 1000.0 nM
[30] = molecular target: Serine/threonine-protein kinase PLK4 (Homo sapiens) (UniProt O00444); settings: Compound concentration 1000.0 nM
[31] = molecular target: Protein kinase C epsilon type (Homo sapiens) (UniProt Q02156); settings: Compound concentration 1000.0 nM
Chain of Protein kinase C epsilon type (Homo sapiens) (Q02156 whole entry): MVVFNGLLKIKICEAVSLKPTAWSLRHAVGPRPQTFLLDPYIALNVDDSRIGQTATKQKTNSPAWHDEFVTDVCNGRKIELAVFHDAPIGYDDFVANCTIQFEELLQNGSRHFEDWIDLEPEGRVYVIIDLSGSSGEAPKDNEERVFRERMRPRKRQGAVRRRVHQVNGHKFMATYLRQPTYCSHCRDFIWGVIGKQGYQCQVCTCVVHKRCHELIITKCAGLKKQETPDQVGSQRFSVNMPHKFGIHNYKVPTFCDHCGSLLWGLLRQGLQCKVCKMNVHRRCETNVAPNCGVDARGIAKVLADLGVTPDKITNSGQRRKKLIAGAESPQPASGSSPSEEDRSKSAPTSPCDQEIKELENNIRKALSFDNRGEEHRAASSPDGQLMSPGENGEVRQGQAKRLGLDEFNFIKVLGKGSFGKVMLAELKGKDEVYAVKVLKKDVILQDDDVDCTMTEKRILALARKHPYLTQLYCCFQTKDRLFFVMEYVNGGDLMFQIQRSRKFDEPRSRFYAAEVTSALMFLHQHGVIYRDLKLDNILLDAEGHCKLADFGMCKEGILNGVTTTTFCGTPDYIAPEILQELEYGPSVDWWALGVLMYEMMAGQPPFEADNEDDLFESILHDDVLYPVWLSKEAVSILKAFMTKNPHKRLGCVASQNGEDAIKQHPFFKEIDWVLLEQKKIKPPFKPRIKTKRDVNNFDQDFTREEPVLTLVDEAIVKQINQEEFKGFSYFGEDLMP

[32] = molecular target: Ephrin type-A receptor 2 (Homo sapiens) (UniProt P29317); settings: Compound concentration 1000.0 nM
[33] = molecular target: Serine/threonine-protein kinase MARK2 (Homo sapiens) (UniProt Q7KZI7); settings: Compound concentration 1000.0 nM
[34] = molecular target: Ankyrin repeat and protein kinase domain-containing protein 1 (Homo sapiens) (UniProt Q8NFD2); settings: Compound concentration 1000.0 nM
[35] = molecular target: Phosphatidylinositol 5-phosphate 4-kinase type-2 gamma (Homo sapiens) (UniProt Q8TBX8); settings: Compound concentration 1000.0 nM
[36] = molecular target: Death-associated protein kinase 1 (Homo sapiens) (UniProt P53355); settings: Compound concentration 1000.0 nM

SMILES	residual activity [1] [%]	residual activity [2] [%]	inhibition [3] [%]	residual activity [4] [%]	residual activity [5] [%]	% Inhibition of Control Specific Binding (Mean n=2) [6] [%]	residual activity [7] [%]	residual activity [8] [%]	residual activity [9] [%]	inhibition [10] [%]	residual activity [11] [%]	residual activity [12] [%]	residual activity [13] [%]	residual activity [14] [%]	residual activity [15] [%]	residual activity [16] [%]	residual activity [17] [%]	residual activity [18] [%]	inhibition at 90 min, 10 µM [19] [%]	residual activity [20] [%]	also measured
COc1ccc2c(c1)O[C@H](c1ccc(OC)c(OC)c1)C[C@@H]2NC(=O)C1(c2ccc3c(c2)OC(F)(F)O3)CC1 [A-1596584]	94	100	-3.53	100	97	15.7	81	85	89	53	87	100	99	79	65	89	100	100	2.6	100	residual activity [21]: 100%; % Inhibition of Control Specific Binding (Mean n=2) [22]: 11.3%; residual activity [23]: 88%; residual activity [24]: 100%; residual activity [25]: 96%; inhibition at 120 min, 10 µM [26]: -7.6%; % Inhibition of Control Specific Binding (Mean n=2) [27]: 5.3%; residual activity [28]: 100%; residual activity [29]: 97%; residual activity [30]: 89%; residual activity [31]: 90%; residual activity [32]: 94%; residual activity [33]: 100%; residual activity [34]: 100%; residual activity [35]: 83%; residual activity [36]: 100%
COc1ccc2c(c1)O[C@@H](c1ccc(OC)c(OC)c1)C[C@H]2NC(=O)C1(c2ccc3c(c2)OC(F)(F)O3)CC1 [A-1596586]	93	100	-1.13	90	97	29.3	78	61	95	82.8	84	100	86	100	92	100	75	100	34.6	91	residual activity [21]: 100%; % Inhibition of Control Specific Binding (Mean n=2) [22]: 9.8%; residual activity [23]: 100%; residual activity [24]: 100%; residual activity [25]: 100%; inhibition at 120 min, 10 µM [26]: 29.7%; % Inhibition of Control Specific Binding (Mean n=2) [27]: 10.2%; residual activity [28]: 100%; residual activity [29]: 95%; residual activity [30]: 84%; residual activity [31]: 91%; residual activity [32]: 95%; residual activity [33]: 92%; residual activity [34]: 76%; residual activity [35]: 83%; residual activity [36]: 99%
